This test concerns the target CRACM1/Orai1 (Homo sapiens, UniProt Q96D31). The test is classed as cell-based.

Chain of CRACM1/Orai1 (Q96D31 whole entry): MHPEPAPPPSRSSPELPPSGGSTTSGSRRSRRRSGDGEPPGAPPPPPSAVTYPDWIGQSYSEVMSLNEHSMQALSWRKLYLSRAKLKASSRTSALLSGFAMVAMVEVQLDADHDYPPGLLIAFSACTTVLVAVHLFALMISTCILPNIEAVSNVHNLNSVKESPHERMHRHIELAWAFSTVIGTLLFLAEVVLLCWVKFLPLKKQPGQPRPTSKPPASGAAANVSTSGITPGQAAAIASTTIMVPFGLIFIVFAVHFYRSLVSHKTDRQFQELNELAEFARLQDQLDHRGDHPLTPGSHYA
Chain of CRACM1/Orai1 (Q13586 23-685 partner): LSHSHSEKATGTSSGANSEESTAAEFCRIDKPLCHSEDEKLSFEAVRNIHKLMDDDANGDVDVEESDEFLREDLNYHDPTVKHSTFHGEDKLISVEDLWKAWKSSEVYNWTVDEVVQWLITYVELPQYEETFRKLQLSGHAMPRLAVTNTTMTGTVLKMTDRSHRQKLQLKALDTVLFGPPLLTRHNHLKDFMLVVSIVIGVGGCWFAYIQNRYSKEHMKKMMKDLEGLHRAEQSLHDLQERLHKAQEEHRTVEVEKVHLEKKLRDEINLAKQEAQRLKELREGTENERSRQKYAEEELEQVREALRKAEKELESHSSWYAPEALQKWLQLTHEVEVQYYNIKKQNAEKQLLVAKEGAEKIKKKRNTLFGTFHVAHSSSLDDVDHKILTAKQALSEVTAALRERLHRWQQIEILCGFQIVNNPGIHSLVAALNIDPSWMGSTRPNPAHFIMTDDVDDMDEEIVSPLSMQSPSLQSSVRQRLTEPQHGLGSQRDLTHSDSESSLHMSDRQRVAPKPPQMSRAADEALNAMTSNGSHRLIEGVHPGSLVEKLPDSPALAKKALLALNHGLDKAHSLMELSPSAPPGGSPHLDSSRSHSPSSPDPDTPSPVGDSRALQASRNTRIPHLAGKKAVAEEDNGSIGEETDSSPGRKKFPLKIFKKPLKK

In turn, DPB163-AE yielded a 50% inhibitory concentration (IC50) of 170 ± 68 nM.

DPB162-AE: half-maximal inhibition (IC50) required 86 ± 21 nM.

A word on the IC50: it is the concentration that inhibits the measured activity by half. Lower therefore signals higher potency.

(Values after article PMC2905153 (Cell calcium, 2009).)
